The source of these data is US9968614B2, “Aprepitant injectable formulations” (InnoPharma, Inc., priority 2012, dated 2018).

The nature of series [1]: Solubility of aprepitant in ethanol with the balance water. Type of series: physicochemical. From the text: Thus, while the above approaches using complexing agents and/or co-solvents led to a soluble form of aprepitant in at least some instances, concentration of aprepitant is relatively low, and aprepitant tends to precipitate out upon further dilution. As is already known in the art, solubility of aprepitant increases exponentially with increasing concentration of ethanol as shown in Table 1 in the background section. Moreover, maximum allowed concentrations of ethanol in a drug formulation are typically at or below 49 volume %. […] Moreover, and as already noted above, an ethanol/water solvent system is not suitable for injection as aprepitant will rapidly precipitate upon dilution at the injection site.

Series [2] can be described thus: Solubility of aprepitant in aqueous surfactant solutions. Type of series: physicochemical. Conditions: water alone as solvent. From the text: However, in a typical injectable formulation at Polysorbate 80 concentration of 10% w/v, it would require 7 grams of surfactant, and at Polysorbate 80 concentration of 30% w/v, it would require 9 grams of surfactant to solubilize the aprepitant. Unfortunately, such high quantities of surfactant are entirely unsuitable for injectable formulations (e.g., due to hypersensitivity issues related to polysorbate, foam formation during mixing, etc.). Table 2 below illustrates typical solubility data for aprepitant using water alone as solvent.

Series [3] in a line: Solubility of aprepitant in water or ethanol/water with polysorbate 80. The class given is physicochemical. From the text: The inventors further tested whether co-solvents (i.e., solvents in addition to water) in combination with surfactants would improve solubility of aprepitant. […] In most preferred aspects, a relatively low concentration of nonionic surfactant was chosen in a co-solvent mixture of ethanol and water, and Tables 3-5 below exemplarily illustrate the results of such combination.
More specifically, Table 3 depicts solubility results of aprepitant in water without ethanol at surfactant concentrations noted in the table.
Likewise, Table 4 depicts solubility results of aprepitant in an ethanol/water mixture of (30 vol % EtOH, 70 vol % H2O) at surfactant concentrations noted in the table, and Table 5 depicts solubility results of aprepitant in an ethanol/water mixture of (55 volume % EtOH, 45 vol % H2O) at surfactant concentrations noted in the table.

Series [4] can be described thus: Solubility of aprepitant in polysorbate 80 solutions after pre-solubilisation in DMAC. The class given is physicochemical. Here is the method:
The inventors also tested whether solubility of aprepitant in aqueous polysorbate 80 solutions could be improved when aprepitant was pre-solubilized in a secondary solvent (e.g., dimethylacetamide (DMAC)). […] Remarkably, when the inventors directly added 200 μL of DMAC solubilized in 10 mL of water to 100 mg aprepitant (i.e., without surfactant), aprepitant was not detected in the solution phase.

Series [5] can be described thus: Solubilization of aprepitant by pH (pKa, pH-dependent solubility). The class given is physicochemical. The method, then: Indeed, to be soluble in aqueous solution, a pH of greater than 11.7 is required. However, a formulation with such a high pH is not suitable for injection. Moreover, the instant such a formulation is diluted in blood, the pH will change to about pH 7.4, which will lead to rapid precipitation of the drug. […] Similar problems were also encountered where aprepitant is dissolved in a water/ethanol solvent mixture where ethanol is at about 50 volume 9 concentration. Here, dilution that would occur at the injection site would lead to precipitation of the drug and so might lead to chemo-embolism.

For series [6] the following is noted: cited from earlier work.
For series [7] the following is noted: cited from earlier work. The source holds these as a separate data set.
The conditions of series [8]: given orally, nanoparticulate composition; cited from earlier work.
For series [9] the following is noted: IV infusion; cited from earlier work.
For series [10] the following is noted: prevention and control of acute and delayed chemotherapy induced nausea and vomiting; cited from earlier work.

Read-outs that look alike come from different tables or passages of the source.

With `C[C@@H](O[C@H]1OCCN(Cc2nc(=O)[nH][nH]2)[C@H]1c1ccc(F)cc1)c1cc(C(F)(F)F)cc(C(F)(F)F)c1` [Aprepitant, 5-([(2R,3S)-2((R)-1-[3,5-bis(trifluoromethyl)phenyl]ethoxy)-3-(4-fluoro-phenyl)morpholino]methyl)-1H-1,2,4-triazol-3(2H)-one], the “Aprepitant Conc.” value is reported as 0.0001 mg/mL in series [1] (Ethanol Conc. (v/v) 10, balance water); 0.0232 mg/mL in series [1] (Ethanol Conc. (v/v) 30, balance water); 1.76 mg/mL in [1] (Ethanol Conc. (v/v) 50, balance water); 3.30 mg/mL in series [1] (Ethanol Conc. (v/v) 55, balance water); 5.1 mg/mL in [1] (Ethanol Conc. (v/v) 60, balance water); 12.8 mg/mL in series [1] (Ethanol Conc. (v/v) 70, balance water). Moreover, the “Aprepitant Conc.” value turned out to be 21.8 mg/mL in series [1] (Ethanol Conc. (v/v) 90, balance water); 1.24 mg/mL in series [2] (Cremophor RH 40 10 % w/v); 3.51 mg/mL in series [2] (Cremophor RH 40 30 % w/v); 1.24 mg/mL in series [2] (Cremophor RH 60 10 % w/v); 1.24 mg/mL in [2] (Poloxamer 188 30 % w/v); 1.85 mg/mL in series [2] (Polysorbate 80 10 % w/v). For the same compound, the “Aprepitant Conc.” value is 4.42 mg/mL in series [2] (Polysorbate 80 30 % w/v); 0.560 mg/mL in [3] (30 vol % EtOH, 70 vol % H2O, Polysorbate 80 11 mg/mL); 0.793 mg/mL in [3] (30 vol % EtOH, 70 vol % H2O, Polysorbate 80 44 mg/mL); 0.0232 mg/mL in [3] (30 vol % EtOH, 70 vol % H2O, no Polysorbate 80); 1.936 mg/mL in series [3] (55 volume % EtOH, 45 vol % H2O, Polysorbate 80 11 mg/mL); 3.309 mg/mL in [3] (55 volume % EtOH, 45 vol % H2O, Polysorbate 80 22 mg/mL). Also, the “Aprepitant Conc.” value in series [3] (55 volume % EtOH, 45 vol % H2O, Polysorbate 80 44 mg/mL) was found to be 4.182 mg/mL; in series [3] (55 volume % EtOH, 45 vol % H2O, no Polysorbate 80), 3.3 mg/mL; in series [3] (water without ethanol, Polysorbate 80 11 mg/mL), 0.179 mg/mL; in series [3] (water without ethanol, Polysorbate 80 22 mg/mL), 0.308 mg/mL; in series [3] (water without ethanol, Polysorbate 80 44 mg/mL), 0.505 mg/mL; in series [4] (Directly Added, Polysorbate 80 10 % w/v) it was 1.85 mg/mL. Besides, the “Aprepitant Conc.” value in [4] (Directly Added, Polysorbate 80 30 % w/v) worked out at 4.42 mg/mL; in [4] (Prior Solubilization in DMAC, Polysorbate 80 5 % w/v), 0.85 mg/mL; in [4] (Prior Solubilization in DMAC, Polysorbate 80 10 % w/v), 2.03 mg/mL; in series [4] (Prior Solubilization in DMAC, Polysorbate 80 15 % w/v), 3.13 mg/mL; in series [4] (Prior Solubilization in DMAC, Polysorbate 80 20 % w/v) it was 4.35 mg/mL; in series [4] (Prior Solubilization in DMAC, Polysorbate 80 30 % w/v), 4.80 mg/mL. The “aprepitant in the solution phase” value in series [4] (200 μL DMAC in 10 mL water added directly to 100 mg aprepitant, without surfactant) is given as “not detected”. Also, the “pH required to be soluble in aqueous solution” value in series [5] (aqueous solution) is “greater than 11.7”. In series [5] (concentrated formic acid), the “solubility in concentrated formic acid” value was “soluble”. For the same compound, the “behaviour on dilution of formic acid solution” value in series [5] (twofold dilution with aqueous medium) is on record as “precipitated almost immediately”. Besides, in series [6], the pka is 9.7. Moreover, the “solubility (descriptive)” value in [7] (acetonitrile) is on record as “slightly soluble”; in series [7] (ethanol), “sparingly soluble”; in series [7] (isopropyl acetate), “sparingly soluble”; in series [7] (oil (as is well established)), “substantially insoluble”; in series [7] (water (as is well established)), “substantially insoluble”; in [7] (water), “practically insoluble”. The bioavailability in series [8] is recorded as 60-65%.
Take `C[C@@H](O[C@H]1OCCN(Cc2nc(O)n(P(=O)(O)O)n2)[C@H]1c1ccc(F)cc1)c1cc(C(F)(F)F)cc(C(F)(F)F)c1` [Fosaprepitant]: the “time for conversion to aprepitant” value in series [9] was “less than 30 minutes”. Moreover, the comparison to aprepitant result in [10] is “non-inferiority and bioequivalency”.
